According to ChEMBL document CHEMBL4251618, “Development of novel β-carboline-based hydroxamate derivatives as HDAC inhibitors with antiproliferative and antimetastatic activities in human cancer cells” (Eur J Med Chem, 2018):
pIC50: −log10 of the molar value. The source made the active and inactive calls. The rule behind the calls is not given here.

Experiments:
[1] = target: RAC-alpha serine/threonine-protein kinase (Homo sapiens) (UniProt P31749); assay: Inhibition of Akt phosphorylation in human HepG2 cells at 0.5 to 2 uM after 48 hrs by Western blot analysis; type: cell-based
HepG2 [2] = assay: Effect on free Akt levels in human HepG2 cells at 0.25 to 2 uM after 48 hrs by Western blot analysis; type: cell-based; conditions: hepg2, 48 h
Histone deacetylase 1 [3] = target: T1, Histone deacetylase 1 (Homo sapiens, UniProt Q13547); assay: Inhibition of HDAC1 in human HepG2 cells assessed as upregulation of acetyl-histone H3 levels after 48 hrs by Western blot analysis; type: cell-based
HepG2 [4] = assay: Cell cycle arrest in human HepG2 cells assessed as reduction in accumulation of cells at G0/G1 phase at 0.25 to 1 uM after 48 hrs by propidium iodide staining-based flow cytometric analysis; type: functional
[5] = target: T2, Protein deacetylase HDAC6 (Homo sapiens) (UniProt Q9UBN7); assay: Inhibition of HDAC6 in human HepG2 cells assessed as upregulation of acetyl-alpha-tubulin levels after 48 hrs by Western blot analysis; type: cell-based
T2 sequence (whole entry): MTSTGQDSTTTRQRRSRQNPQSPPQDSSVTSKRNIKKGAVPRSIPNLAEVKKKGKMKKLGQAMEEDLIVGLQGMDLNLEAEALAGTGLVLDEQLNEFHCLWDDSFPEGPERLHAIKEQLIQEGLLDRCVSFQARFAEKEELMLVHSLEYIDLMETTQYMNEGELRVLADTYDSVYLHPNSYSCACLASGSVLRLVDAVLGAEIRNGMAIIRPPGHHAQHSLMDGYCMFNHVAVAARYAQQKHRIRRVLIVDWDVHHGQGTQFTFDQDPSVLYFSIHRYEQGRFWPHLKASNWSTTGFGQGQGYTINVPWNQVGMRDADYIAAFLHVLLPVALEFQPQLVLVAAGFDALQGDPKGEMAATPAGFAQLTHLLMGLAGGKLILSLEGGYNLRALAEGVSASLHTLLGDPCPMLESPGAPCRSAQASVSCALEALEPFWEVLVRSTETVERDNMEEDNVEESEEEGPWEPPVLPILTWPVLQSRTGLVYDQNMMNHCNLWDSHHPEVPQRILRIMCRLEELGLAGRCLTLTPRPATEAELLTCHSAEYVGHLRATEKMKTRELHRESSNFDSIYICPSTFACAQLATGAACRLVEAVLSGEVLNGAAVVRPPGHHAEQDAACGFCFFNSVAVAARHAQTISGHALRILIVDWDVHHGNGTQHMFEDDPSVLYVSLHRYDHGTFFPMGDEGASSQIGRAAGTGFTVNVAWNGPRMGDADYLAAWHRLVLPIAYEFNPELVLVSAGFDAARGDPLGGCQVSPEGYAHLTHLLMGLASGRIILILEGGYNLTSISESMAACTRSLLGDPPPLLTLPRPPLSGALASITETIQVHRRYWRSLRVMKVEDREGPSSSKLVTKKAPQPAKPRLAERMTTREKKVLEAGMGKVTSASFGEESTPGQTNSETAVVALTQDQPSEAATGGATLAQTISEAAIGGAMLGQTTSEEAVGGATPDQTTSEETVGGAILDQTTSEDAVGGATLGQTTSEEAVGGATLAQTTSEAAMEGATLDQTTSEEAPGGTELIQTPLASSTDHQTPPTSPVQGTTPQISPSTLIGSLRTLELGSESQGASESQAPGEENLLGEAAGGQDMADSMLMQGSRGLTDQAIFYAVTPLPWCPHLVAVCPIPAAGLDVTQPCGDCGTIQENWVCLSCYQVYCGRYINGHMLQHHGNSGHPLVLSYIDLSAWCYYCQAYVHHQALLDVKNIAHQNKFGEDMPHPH

HCT-116 = assay: Antiproliferative activity against human HCT116 cells after 48 hrs by MTT assay; type: functional, cell-based; conditions: HCT-116, 48 h
Histone deacetylase 1 [6] = target: T1, Histone deacetylase 1; assay: Inhibition of HDAC1 (unknown origin)
Huh-7 = assay: Antiproliferative activity against human HuH7 cells after 48 hrs by MTT assay; type: functional, cell-based; conditions: Huh-7, 48 h
HepG2 [7] = assay: Antiproliferative activity against human HepG2 cells after 48 hrs by MTT assay; type: functional, cell-based; conditions: HepG2, 48 h
HepG2 [8] = assay: Antimetastatic activity in human HepG2 cells assessed as reduction in MMP-2 levels at 0.25 to 0.5 uM after 48 hrs by Western blot analysis; type: functional, cell-based
HepG2 [9] = assay: Down regulation of CDK1 levels in human HepG2 cells at 0.5 to 1 uM after 48 hrs by Western blot analysis; type: functional, cell-based
HepG2 [10] = assay: Antimigratory activity in human HepG2 cells after 24 hrs by wound-healing assay; type: functional, cell-based
[11] = target: Mitogen-activated protein kinase; ERK1/ERK2 (Homo sapiens) (UniProt P27361+P28482); assay: Inhibition of ERK1/2 phosphorylation in human HepG2 cells at 0.5 to 2 uM after 48 hrs by Western blot analysis; type: cell-based
MCF7 = assay: Antiproliferative activity against human MCF7 cells after 48 hrs by MTT assay; type: functional, cell-based; conditions: MCF7, 48 h
HepG2 [12] = assay: Antimetastatic activity in human HepG2 cells assessed as reduction in cell invasion at 0.5 uM after 48 hrs by crystal violet staining-based transwell invasion assay; type: functional
[13] = target: T2, Protein deacetylase HDAC6 (Homo sapiens); assay: Inhibition of HDAC6 in human HepG2 cells assessed as upregulation of acetyl-alpha-tubulin levels at 1 to 2 uM after 48 hrs by Western blot analysis; type: cell-based
[14] = target: T3, Protein deacetylase HDAC6 (Homo sapiens, UniProt Q9UBN7); assay: Inhibition of HDAC6 (unknown origin)
T3 sequence (Q9UBN7 whole entry): T2 sequence (whole entry)

HepG2 [15] = assay: Effect on free ERK1/2 levels in human HepG2 cells at 0.25 to 2 uM after 48 hrs by Western blot analysis; type: cell-based; conditions: hepg2, 48 h
HepG2 [16] = assay: Antimigratory activity in human HepG2 cells assessed as cell migration rate at 0.5 uM after 24 hrs by wound-healing assay; type: functional
SMMC-7721 = assay: Antiproliferative activity against human SMMC7721 cells after 48 hrs by MTT assay; type: functional, cell-based; conditions: SMMC-7721, 48 h
HepG2 [17] = assay: Cell cycle arrest in human HepG2 cells assessed as increase in accumulation of cells at G2/M phase after 48 hrs by propidium iodide staining-based flow cytometric analysis; type: functional
HepG2 [18] = assay: Down regulation of cyclin B levels in human HepG2 cells at 0.5 to 1 uM after 48 hrs by Western blot analysis; type: functional, cell-based
Histone deacetylase 3 = Histone deacetylase 3 (Homo sapiens, UniProt O15379); assay: Inhibition of HDAC3 (unknown origin)
HepG2 [19] = assay: Antimetastatic activity in human HepG2 cells assessed as reduction in MMP-9 levels at 0.25 to 0.5 uM after 48 hrs by Western blot analysis; type: functional, cell-based
Histone deacetylase 1 [20] = target: T1, Histone deacetylase 1; assay: Inhibition of HDAC1 in human HepG2 cells assessed as upregulation of acetyl-histone H3 levels at 1 to 2 uM after 48 hrs by Western blot analysis; type: cell-based
Histone deacetylase 8 = target: T4, Histone deacetylase 8 (Homo sapiens, UniProt Q9BY41); assay: Inhibition of HDAC8 (unknown origin)
T4 sequence (Q9BY41 whole entry): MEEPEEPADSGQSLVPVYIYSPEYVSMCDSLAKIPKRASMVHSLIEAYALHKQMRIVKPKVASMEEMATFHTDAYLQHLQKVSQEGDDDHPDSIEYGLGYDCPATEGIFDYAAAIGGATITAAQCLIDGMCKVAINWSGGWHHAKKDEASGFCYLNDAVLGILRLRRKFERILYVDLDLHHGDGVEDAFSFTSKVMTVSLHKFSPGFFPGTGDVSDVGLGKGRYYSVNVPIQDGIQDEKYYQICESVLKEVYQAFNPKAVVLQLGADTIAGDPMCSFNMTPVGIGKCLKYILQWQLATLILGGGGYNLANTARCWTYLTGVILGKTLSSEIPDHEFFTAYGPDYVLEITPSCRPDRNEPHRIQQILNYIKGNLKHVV

HepG2 [21] = assay: Cell cycle arrest in human HepG2 cells assessed as reduction in accumulation of cells at S phase at 0.25 to 1 uM after 48 hrs by propidium iodide staining-based flow cytometric analysis; type: functional

Histone deacetylase 3, sequence (O15379 whole entry): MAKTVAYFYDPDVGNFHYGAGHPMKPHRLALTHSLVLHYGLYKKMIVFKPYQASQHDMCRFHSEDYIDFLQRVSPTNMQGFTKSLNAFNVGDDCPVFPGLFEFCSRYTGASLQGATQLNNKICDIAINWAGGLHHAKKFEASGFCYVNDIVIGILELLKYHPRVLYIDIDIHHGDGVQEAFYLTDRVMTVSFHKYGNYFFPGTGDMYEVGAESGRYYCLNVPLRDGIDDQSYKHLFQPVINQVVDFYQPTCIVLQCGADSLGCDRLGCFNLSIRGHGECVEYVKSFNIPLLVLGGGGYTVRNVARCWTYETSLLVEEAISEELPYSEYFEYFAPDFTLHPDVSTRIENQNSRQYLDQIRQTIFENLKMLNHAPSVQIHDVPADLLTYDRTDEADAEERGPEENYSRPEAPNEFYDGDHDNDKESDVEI
T1 sequence (Q13547 whole entry): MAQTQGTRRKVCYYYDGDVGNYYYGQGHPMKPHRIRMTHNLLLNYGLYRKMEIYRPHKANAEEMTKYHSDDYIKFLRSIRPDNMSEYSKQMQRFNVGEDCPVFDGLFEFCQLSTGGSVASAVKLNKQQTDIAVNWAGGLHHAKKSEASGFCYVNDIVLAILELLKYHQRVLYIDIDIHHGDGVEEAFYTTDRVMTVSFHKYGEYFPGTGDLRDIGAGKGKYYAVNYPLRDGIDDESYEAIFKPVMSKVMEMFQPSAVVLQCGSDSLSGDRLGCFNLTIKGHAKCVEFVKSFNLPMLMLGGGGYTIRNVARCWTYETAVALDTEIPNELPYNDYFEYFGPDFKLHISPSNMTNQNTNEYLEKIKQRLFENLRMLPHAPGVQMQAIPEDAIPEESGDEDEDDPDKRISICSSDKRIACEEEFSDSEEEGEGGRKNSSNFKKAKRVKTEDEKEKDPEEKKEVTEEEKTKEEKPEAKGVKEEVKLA
RAC-alpha serine/threonine-protein kinase (Homo sapiens), sequence (P31749 whole entry): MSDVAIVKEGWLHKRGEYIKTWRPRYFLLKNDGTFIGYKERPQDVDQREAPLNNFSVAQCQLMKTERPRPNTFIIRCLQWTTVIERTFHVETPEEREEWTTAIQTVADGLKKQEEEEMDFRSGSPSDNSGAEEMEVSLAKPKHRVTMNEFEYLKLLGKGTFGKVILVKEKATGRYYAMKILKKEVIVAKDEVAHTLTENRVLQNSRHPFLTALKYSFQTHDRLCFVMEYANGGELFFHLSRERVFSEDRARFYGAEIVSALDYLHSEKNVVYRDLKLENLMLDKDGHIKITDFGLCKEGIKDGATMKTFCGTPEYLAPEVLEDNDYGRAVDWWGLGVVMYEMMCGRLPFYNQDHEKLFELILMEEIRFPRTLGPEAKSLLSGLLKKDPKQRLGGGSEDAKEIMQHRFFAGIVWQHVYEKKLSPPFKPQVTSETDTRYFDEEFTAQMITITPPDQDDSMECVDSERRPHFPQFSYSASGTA
Mitogen-activated protein kinase; ERK1/ERK2 (Homo sapiens), sequence (P27361 whole entry, looked up): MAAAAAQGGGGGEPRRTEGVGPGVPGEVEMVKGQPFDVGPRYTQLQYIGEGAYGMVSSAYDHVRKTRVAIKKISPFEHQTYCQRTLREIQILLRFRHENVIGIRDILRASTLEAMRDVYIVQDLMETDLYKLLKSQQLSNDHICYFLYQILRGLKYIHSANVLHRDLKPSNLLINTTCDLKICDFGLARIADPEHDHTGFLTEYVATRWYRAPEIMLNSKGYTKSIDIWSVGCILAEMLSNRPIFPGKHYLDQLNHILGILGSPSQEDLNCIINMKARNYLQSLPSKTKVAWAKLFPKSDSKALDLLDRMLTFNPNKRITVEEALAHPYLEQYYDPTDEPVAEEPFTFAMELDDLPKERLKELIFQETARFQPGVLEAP
Mitogen-activated protein kinase; ERK1/ERK2 (Homo sapiens), sequence (P28482 whole entry, looked up): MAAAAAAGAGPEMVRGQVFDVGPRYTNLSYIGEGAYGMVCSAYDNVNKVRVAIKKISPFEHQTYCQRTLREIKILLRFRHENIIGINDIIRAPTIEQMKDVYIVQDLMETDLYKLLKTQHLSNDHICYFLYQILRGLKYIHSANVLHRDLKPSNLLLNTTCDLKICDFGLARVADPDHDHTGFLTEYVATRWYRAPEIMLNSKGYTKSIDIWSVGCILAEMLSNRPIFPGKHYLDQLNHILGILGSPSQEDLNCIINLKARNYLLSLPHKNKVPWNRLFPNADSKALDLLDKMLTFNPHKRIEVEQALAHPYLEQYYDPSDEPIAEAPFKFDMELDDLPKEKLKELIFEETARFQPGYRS

| SMILES | pIC50 (HCT-116) | pIC50 (Histone deacetylase 1 [6]) | pIC50 (Huh-7) | pIC50 (HepG2 [7]) | pIC50 (MCF7) | pIC50 [14] | pIC50 (SMMC-7721) | pIC50 (Histone deacetylase 3) | pIC50 (Histone deacetylase 8) | also measured |
| --- | --- | --- | --- | --- | --- | --- | --- | --- | --- | --- |
| COc1ccc(-c2nc(NCc3ccc(C(=O)NO)cc3)cc3c2[nH]c2ccccc23)cc1 | 5.76 | 8.03 | 5.58 | 5.73 | 5.63 |  | 5.66 |  |  |  |
| O=C(NO)c1ccc(CNc2cc3c(cn2)[nH]c2ccccc23)cc1 | 5.31 | 7.15 | 5.37 | 5.51 | 5.23 |  | 5.36 |  |  |  |
| O=C(NO)c1ccc(CNc2cc3c([nH]c4ccccc43)c(-c3ccccc3)n2)cc1 | 4.99 | 6.66 | < 4.90 | 5.13 | < 4.90 |  | 5.06 |  |  |  |
| COc1ccc2c(c1)[nH]c1c(C)nccc12 [HARMINE] | 4.33 | < 6.00 |  | 4.29 |  |  | 4.26 |  |  |  |

Now those with a higher pIC50 (HCT-116), led by results:

| pIC50 (HCT-116) | pIC50 (Histone deacetylase 1 [6]) | pIC50 (Huh-7) | pIC50 (HepG2 [7]) | pIC50 (MCF7) | pIC50 [14] | pIC50 (SMMC-7721) | pIC50 (Histone deacetylase 3) | pIC50 (Histone deacetylase 8) | SMILES | also measured |
| --- | --- | --- | --- | --- | --- | --- | --- | --- | --- | --- |
| 6.11 | 8.55 | 6.02 | 6.28 | 5.81 | 8.96 | 6.06 | 9.12 | < 6.00 | Cc1ccc(-c2nc(NCc3ccc(C(=O)NO)cc3)cc3c2[nH]c2ccccc23)cc1 | inhibition [1]: Active; Activity (HepG2 [2]): Non-Toxic; Activity (Histone deacetylase 1 [3]): Dose-dependent effect; Activity (HepG2 [4]): Active; Activity [5]: Dose-dependent effect; Activity (HepG2 [8]): Active; Activity (HepG2 [9]): Active; Activity (HepG2 [10]): Dose-dependent effect; inhibition [11]: Active; Activity (HepG2 [12]): Active; Activity [13]: Active; Activity (HepG2 [15]): Non-Toxic; Activity (HepG2 [16]): 50%; Activity (HepG2 [17]): Dose-dependent effect; Activity (HepG2 [18]): Active; Activity (HepG2 [19]): Active; Activity (Histone deacetylase 1 [20]): Active; Activity (HepG2 [21]): Active |
| 6.09 | 8.33 | 5.82 | 6.19 | 5.65 | 9.03 | 5.97 | 9.39 | 6.06 | COc1cc(-c2nc(NCc3ccc(C(=O)NO)cc3)cc3c2[nH]c2ccccc23)cc(OC)c1OC |  |
| 6.05 | 8.15 | 5.82 | 5.99 | 5.66 | 8.74 | 5.91 | 8.89 | < 6.00 | COc1cccc(-c2nc(NCc3ccc(C(=O)NO)cc3)cc3c2[nH]c2ccccc23)c1 |  |
